# According to US9550752B2, “Triazolinthione derivatives” (priority 2013, dated 2017):
# Marks after values point to notes of the source that are not given here.
# System: Pyricularia oryzae
# Assay: not given
# Type: in vivo
# Conditions: 500 ppm of active ingredient; rice, preventive; evaluated 8 days after inoculation
row,SMILES,biological efficacy
1,OC(Cc1cccnc1Cl)(Cn1ncnc1S)C1(F)CC1 (centres unmarked) [Example I-11],≥ 90%

# System: Pyrenophora teres
# Assay: In vivo preventive test on Pyrenophora teres (net blotch on barley)
# Conditions: 500 ppm of active ingredient; barley plants, preventive spray; evaluated 14 days after inoculation
# Experimental: (§1) The young plants of barley are treated by spraying the active ingredient prepared as described above. Control plants are treated only with an aqueous solution of acetone/Dimethyl sulfoxide/tween®. After 24 hours, the plants are contaminated by spraying the leaves with an aqueous suspension of Pyrenophora teres spores.
row,SMILES,biological efficacy
1,CCC(C)(C)C(O)(Cc1ccncc1F)Cn1ncnc1S (centres unmarked) [Example I-17],≥ 90%

# System: not given
# Assay: not given
# Conditions: method [a]: pH 2.7, 0.1% formic acid in water/acetonitrile; Table 2, formula (XXI)
row,SMILES,LogP
1,OC(Cc1ccncc1Cl)(Cn1cncn1)c1ccc2oc3ccccc3c2c1 (centres unmarked) [XXI-85],2.40^[a]

# Same assay, conditions: method [a]: pH 2.7; Table 3, formula (V)
row,SMILES,LogP
1,O=C(Cc1ccc(Cl)nc1)C1(Cl)CC1 [Example V-6],2.34
2,CC(C)(C)C(=O)Cc1ncc(Cl)cc1Cl [Example V-13],3.33^[a]
3,CC(C)(C)C(=O)Cc1cnc2ccccc2c1 [Example V-14],1.60^[a]
4,CC(C)(C)C(=O)Cc1ccc(Cl)nc1 [Example V-15],2.47^[a]
5,CC(C)(C)C(=O)Cc1cccnc1Cl [Example V-16],2.34^[a]
6,CCC(C)(CC)C(=O)Cc1ccncc1Cl [Example V-17],3.04^[a]
7,CC(C)C(C)(C)C(=O)Cc1ccncc1Cl [Example V-18],3.00^[a]
8,CC(C)(C)C(=O)Cc1cccnc1 [Example V-19],0.41
9,CC(C)(C)C(=O)Cc1ccncc1 [Example V-20],0.35
10,O=C(Cc1cccnc1Cl)C(CF)(CF)CF [Example V-25],1.98^[a]

# Same assay, conditions: method [a]: pH 2.7; Table 4, formula (XII)
row,SMILES,LogP
1,CC(C)(C)C1(Cc2ncc(Cl)cc2Cl)CO1 (centres unmarked) [XII-6],4.06^[a]
2,CC(C)(C)C1(Cc2cnc3ccccc3c2)CO1 (centres unmarked) [XII-7],1.86^[a]
3,CC(C)(C)C1(Cc2cccnc2Cl)CO1 (centres unmarked) [XII-9],2.97
4,CC(C)(C)C1(Cc2ccncc2Cl)CO1 (centres unmarked) [XII-10],2.80^[a]
5,CC(C)(C)C1(Cc2ccncc2F)CO1 (centres unmarked) [XII-12],2.31^[a]
6,CCC(C)(C)C1(Cc2ccncc2F)CO1 (centres unmarked) [XII-15],2.76^[a]
7,CC(C)C(C)(C)C1(Cc2ccncc2F)CO1 (centres unmarked) [XII-17],3.19^[a]
8,CCC(C)(C)C1(Cc2ccnc(Cl)c2)CO1 (centres unmarked) [XII-18],3.51^[a]
9,CC(C)C(C)(C)C1(Cc2ccnc(Cl)c2)CO1 (centres unmarked) [XII-21],3.94^[a]
10,CC(C)(C)C1(Cc2ccnc(Cl)c2)CO1 (centres unmarked) [XII-22],3.06^[a]
11,CC(C)C(C)(C)C1(Cc2cc(Cl)ncc2F)CO1 (centres unmarked) [XII-24],4.34^[a]
12,CCC(C)(C)C1(Cc2cc(Cl)ncc2F)CO1 (centres unmarked) [XII-27],3.89^[a]
13,CC(C)(C)C1(Cc2cc(Cl)ncc2F)CO1 (centres unmarked) [XII-28],3.42^[a]
14,CC(C)C(C)(C)C1(Cc2ccncc2Cl)CO1 (centres unmarked) [XII-30],3.75^[a]
15,CCC(C)(C)C1(Cc2ccncc2Cl)CO1 (centres unmarked) [XII-34],3.33^[a]
16,CC(C)(C)C1(Cc2cc(F)ncc2Cl)CO1 (centres unmarked) [XII-38],3.65^[a]
17,CCC(C)(C)C1(Cc2cc(F)ncc2Cl)CO1 (centres unmarked) [XII-40],4.17^[a]
18,CC(C)(C)C1(Cc2ccnc(Cl)c2F)CO1 (centres unmarked) [XII-46],3.37^[a]
19,CC(C)(C)C1(Cc2c(Cl)cncc2Cl)CO1 (centres unmarked) [XII-52],3.89^[a]
20,CCC(C)(C)C1(Cc2c(Cl)cncc2Cl)CO1 (centres unmarked) [XII-54],4.41^[a]
21,CCCC(C)(C)C1(Cc2ccncc2Cl)CO1 (centres unmarked) [XII-57],2.03^[a]

# Same assay, conditions: method [b]: pH 7.8; Table 3, formula (V)
row,SMILES,LogP
1,O=C(Cc1ccc(Cl)nc1)C1(Cl)CC1 [Example V-6],2.30
2,CC(C)(C)C(=O)Cc1cccnc1 [Example V-19],1.71
3,CC(C)(C)C(=O)Cc1ccncc1 [Example V-20],1.75

# Same assay, conditions: method [b]: pH 7.8; Table 4, formula (XII)
row,SMILES,LogP
1,CC(C)(C)C1(Cc2cccnc2Cl)CO1 (centres unmarked) [XII-9],2.96

# Same assay, conditions: pH 2.7
row,SMILES,LogP
1,OC(Cc1cccnc1Cl)(Cn1ncnc1S)C1(F)CC1 (centres unmarked) [Example I-11],1.76^[a]
2,OC(Cc1ccncc1Cl)(Cn1ncnc1S)C1(F)CC1 (centres unmarked) [Example I-13],1.63^[a]
3,CC1(C(O)(Cc2cccnc2Cl)Cn2ncnc2S)CC1 (centres unmarked) [Example I-15],2.14^[a]
4,CC1(C(O)(Cc2ccncc2Cl)Cn2ncnc2S)CC1 (centres unmarked) [Example I-16],1.96^[a]
5,CCC(C)(C)C(O)(Cc1ccncc1F)Cn1ncnc1S (centres unmarked) [Example I-17],2.14^[a]
6,CC(C)(C)C(O)(Cc1ccncc1F)Cn1ncnc1S (centres unmarked) [Example I-18],1.79^[a]
7,OC(Cc1ccncc1F)(Cn1ncnc1S)C1(Cl)CC1 (centres unmarked) [Example I-19],1.65^[a]
8,CCC(C)(C)C(O)(Cc1ccncc1Cl)Cn1ncnc1S (centres unmarked) [Example I-20],2.50^[a]
9,OC(Cc1ccncc1F)(Cn1ncnc1S)C1(F)CC1 (centres unmarked) [Example I-21],1.29^[a]
10,CC(CF)(CF)C(O)(Cc1ccncc1F)Cn1ncnc1S (centres unmarked) [Example I-22],1.58^[a]
11,OC(CCl)(Cc1cc(Cl)nc(Cl)c1)C1(Cl)CC1 (centres unmarked) [XV-1],3.85^[a]
12,CC(C)(C)C(O)(Cc1cnc2ccccc2c1)Cn1cncn1 (centres unmarked) [XXI-8],1.18^[a]
13,CC(C)(C)C(O)(Cc1ccc(Cl)nc1)Cn1cncn1 (centres unmarked) [XXI-9],1.98^[a]
14,CC(C)(C)C(O)(Cc1cccnc1Cl)Cn1cncn1 (centres unmarked) [XXI-10],1.94^[a]
15,CC(C)(C)C(O)(Cc1ccncc1Cl)Cn1cncn1 (centres unmarked) [XXI-11],1.74^[a]
16,CCC(C)(C)C(O)(Cc1ccncc1Cl)Cn1cncn1 (centres unmarked) [XXI-12],2.13^[a]
17,Cc1cc(C(O)(Cc2ccncc2Cl)Cn2cncn2)nn1C (centres unmarked) [XXI-71],0.84^[a]
18,OC(Cc1ccc(Cl)cn1)(Cn1cncn1)C1(Cl)CC1 (centres unmarked) [XXI-72],2.23^[a]
19,OC(CCc1ccccc1Cl)(Cc1ccncc1Cl)Cn1cncn1 (centres unmarked) [XXI-73],2.29^[a]
20,OC(CCc1ccc(Cl)cc1)(Cc1ccncc1Cl)Cn1cncn1 (centres unmarked) [XXI-74],2.40^[a]
21,CC(C)(Oc1ccc(Cl)cc1)C(O)(Cc1ccncc1Cl)Cn1cncn1 (centres unmarked) [XXI-75],2.84^[a]

row,SMILES,LogP
1,OC(Cc1nccnc1Br)(Cn1cncn1)C1(Cl)CC1 (centres unmarked) [XXI-76],1.96^[a]
2,COc1nccnc1CC(O)(Cn1cncn1)C1(Cl)CC1 (centres unmarked) [XXI-77],1.88^[a]
3,OC(Cc1ccccc1F)(Cc1cc(Cl)ncc1F)Cn1cncn1 (centres unmarked) [XXI-78],2.34^[a]
4,OC(Cc1cccc(Cl)c1)(Cc1cc(Cl)ncc1F)Cn1cncn1 (centres unmarked) [XXI-79],2.69^[a]
5,OC(Cc1ccc(F)cc1)(Cc1ccncc1Cl)Cn1cncn1 (centres unmarked) [XXI-80],1.93^[a]
6,CC(C)(F)C(O)(Cc1ccncc1Cl)Cn1cncn1 (centres unmarked) [XXI-81],1.20^[a]
7,OC(Cc1ccncc1Cl)(Cn1cncn1)C1CCC1 (centres unmarked) [XXI-82],1.46^[a]
8,OC(Cc1ccncc1Cl)(Cn1cncn1)C1(c2ccccc2)CC1 (centres unmarked) [XXI-83],2.23^[a]
9,OC(COc1ccc(F)cc1)(Cc1ccncc1Cl)Cn1cncn1 (centres unmarked) [XXI-84],1.86^[a]
10,OC(Cc1ccncc1C(F)(F)F)(Cn1cncn1)C1(Cl)CC1 (centres unmarked) [XXI-86],2.08^[a]
11,OC(Cc1ccnc(Cl)c1Cl)(Cn1cncn1)C1(Cl)CC1 (centres unmarked) [XXI-87],2.39^[a]
12,OC(Cc1cc(Cl)cnc1Cl)(Cn1cncn1)C1(Cl)CC1 (centres unmarked) [XXI-88],2.53^[a]
13,Cc1cccc2cc(CC(O)(Cn3cncn3)C3(Cl)CC3)c(Cl)nc12 (centres unmarked) [XXI-89],3.53^[a]
14,OC(Cc1ccccc1F)(Cc1ccnc(Cl)c1F)Cn1cncn1 (centres unmarked) [XXI-90],1.73^[a]
15,OC(Cc1ccnc(Cl)c1F)(Cn1cncn1)c1ccc(Cl)nc1 (centres unmarked) [XXI-91],1.23^[a]
16,OC(Cc1ccnc(Cl)c1F)(Cn1cncn1)C1(F)CC1 (centres unmarked) [XXI-92],1.23^[a]
17,OC(Cc1cccc(Cl)c1)(Cc1ccnc(Cl)c1F)Cn1cncn1 (centres unmarked) [XXI-93],2.02^[a]
18,OC(Cc1cc(F)ncc1Cl)(Cn1cncn1)C1(Cl)CC1 (centres unmarked) [XXI-94],2.30^[a]
19,CC(C)(CCl)C(O)(Cc1ccncc1Cl)Cn1cncn1 (centres unmarked) [XXI-95],1.76^[a]
20,CC(C)(Oc1ccc(F)cc1)C(O)(Cc1ccncc1Cl)Cn1cncn1 (centres unmarked) [XXI-96],2.48^[a]

# Same assay, conditions: pH 7.8
row,SMILES,LogP
1,CC(C)(C)C(O)(Cc1ccc(Cl)nc1)Cn1cncn1 (centres unmarked) [XXI-9],1.98^[b];
2,CC(C)(C)C(O)(Cc1cccnc1Cl)Cn1cncn1 (centres unmarked) [XXI-10],1.90^[b];
3,CC(C)(CCl)C(O)(Cc1ccncc1Cl)Cn1cncn1 (centres unmarked) [XXI-95],1.96^[b];
4,CC(C)(Oc1ccc(F)cc1)C(O)(Cc1ccncc1Cl)Cn1cncn1 (centres unmarked) [XXI-96],2.60^[b];

# System: Botrytis cinerea
# Assay: In vivo preventive test on Botrytis cinerea (grey mould)
# Conditions: 100 ppm of active ingredient; gherkin plants, preventive spray; evaluated 4 to 5 days after inoculation
# Experimental: as §1, with “gherkin” for “barley”, “Botrytis cinerea” for “Pyrenophora teres”
row,SMILES,biological efficacy
1,OC(Cc1ccncc1Cl)(Cn1ncnc1S)C1(F)CC1 (centres unmarked) [Example I-13],≥ 90%

# System: not listed separately
# Assay: physchem
# Conditions: pH 2.7
row,SMILES,chromatographic logP
1,"O=C(Cc1cccnc1Cl)C1(Cl)CC1 [Example V-3, 1-(1-chlorocyclopropyl)-2-(2-chloropyridin-3-yl)ethanone]",2.2

# Same assay, conditions: pH 7.8
row,SMILES,chromatographic logP
1,"O=C(Cc1cccnc1Cl)C1(Cl)CC1 [Example V-3, 1-(1-chlorocyclopropyl)-2-(2-chloropyridin-3-yl)ethanone]",2.21

# Same assay, conditions: reversed phase HPLC column, pH 2.7
row,SMILES,chromatographic logP
1,"OC(Cc1ccncc1Cl)(Cn1nc[nH]c1=S)C1(Cl)CC1 (centres unmarked) [Example I-3, 2-[2-(1-chlorocyclopropyl)-3-(3-chloropyridin-4-yl)-2-hydroxypropyl]-2,4-dihydro-3H-1,2,4-triazole-3-thione]",2.01
2,"OC(Cc1ccncc1Cl)(Cn1cncn1)C1(Cl)CC1 (centres unmarked) [XXI-5, 2-(1-chlorocyclopropyl)-1-(3-chloropyridin-4-yl)-3-(1H-1,2,4-triazol-1-yl)propan-2-ol]",1.67

# Same assay, conditions: reversed phase HPLC column, pH 7.8
row,SMILES,chromatographic logP
1,"OC(Cc1ccncc1Cl)(Cn1cncn1)C1(Cl)CC1 (centres unmarked) [XXI-5, 2-(1-chlorocyclopropyl)-1-(3-chloropyridin-4-yl)-3-(1H-1,2,4-triazol-1-yl)propan-2-ol]",1.75
